Literature values as cited in US8685448B2, “Pharmaceutical solid dosage form” (Laboratorios Del Dr. Esteve, S.A., priority 2009, dated 2014).
Counter-ions that a name gives are not always drawn.

Conditions: background statement

- solubility in water: extremely soluble in water
SMILES: COc1ccc2nc([S@@+]([O-])Cc3ncc(C)c(OC)c3C)[nH]c2c1 [esomeprazol sodium salt, sodium salt of (−)-(S)-5-methoxy-2-[(4-methoxy-3,5-dimethylpyridin-2-yl)methylsulflnyl]-3H-benzoimidazole]
